The values below come from patent US20250066367A1, “Pyrimidine-Annulated Triazole Derivatives and Their Use in Platelet Aggregation Inhibition” (BEIJING HONGHUI MEDITECH CO., LTD., priority 2021, published 2025).

The assay has as its target human P2Y12 receptor (Homo sapiens, UniProt Q9H244). Nature of the assay: Inhibition study in human P2Y12 receptor transfected CHO cells (cAMP, LANCE Ultra cAMP Kit). In kind it is cell-based. As to the method: A CHO cell line which stably expresses human P2Y12 receptors was used in the study of the inhibitory effect of the compounds of the disclosure. (The cell line was constructed by Beijing Ion Channel Explorer Co.) The hP2Y12-CHO Cells were cultured in Ham's F-12 medium (Ham's F-12 Medium: +10% FBS +200 μg/ml Hygromycin B) and incubated at 37° C. under 5% CO2. The poor culture medium was removed, and the cells were washed with PBS. Then 1 mL trypsin solution was added to digest/detach the cells. The culture dish was incubated at 37° C. for 2 minutes. As soon as the cells were detached, 5 mL 37° C. pre-warmed complete medium was added. Cell suspension was transferred into a sterile pipet, the cells aggregates were dissociated by a gentle homogenization. The cell suspension was transferred into a sterile tube, and centrifuged at 1000 rpm for 5 minutes; In order to maintain the physiological activity of cells, the degree of cell fusion was controlled at about 80%.
After cell counting, the cells were cultured in 384-well plate. The test compounds were serially diluted 5-fold from 10000 nM for 10 concentrations and in 3 replicates. Ticagrelor was used as the reference compound and 2-MeSADP as the inducer. After the incubation for 15 min at 37° C., forskolin buffer was added to all wells to induce the production of cAMP. The plate was centrifuged at 1000 rpm for 1 minute, followed by incubation at 37° C. for 30 min. After lysis, the cAMP expression was quantified using PerkinElmer's LANCE® Ultra cAMP Kit method.
On the technique in general: Time-resolved FRET reads energy transfer from a long-lived donor to a nearby acceptor.

Setting [1] is: hP2Y12-CHO cells, 2-MeSADP as inducer, forskolin-induced cAMP, read-out: Inbibition of P2Y12 IC50.

Like-named read-outs stand apart in the source and are kept apart here.

Sequence of human P2Y12 receptor (Q9H244 whole entry): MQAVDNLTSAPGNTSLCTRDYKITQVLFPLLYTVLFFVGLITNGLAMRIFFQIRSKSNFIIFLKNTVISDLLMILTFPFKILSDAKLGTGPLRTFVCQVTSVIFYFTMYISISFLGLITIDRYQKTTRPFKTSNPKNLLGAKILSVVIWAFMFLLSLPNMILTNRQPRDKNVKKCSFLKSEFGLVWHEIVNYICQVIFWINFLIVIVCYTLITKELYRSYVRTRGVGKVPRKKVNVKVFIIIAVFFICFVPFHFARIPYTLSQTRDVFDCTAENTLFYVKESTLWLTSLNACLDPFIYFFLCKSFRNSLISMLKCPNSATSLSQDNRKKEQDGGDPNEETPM

Turning to `CCCSc1nc(N[C@@H]2C[C@H]2c2ccc(F)c(F)c2)c2nnn([C@@H]3[C@@H](O)[C@H](CO)O[C@H]3CO)c2n1` [Compound 8, ((2R,3R,4R,5S)-3-(7-(((1R,2S)-2-(3,4-difluorophenyl)cyclopropyl)amino)-5-(propylthio)-3H-[1,2,3]triazolo[4,5-d]pyrimidin-3-yl)-4-hydroxytetrahydrofuran-2,5-diyl)dimethanol], under setting [1], the IC50 (as a rule, the point on the concentration scale where inhibition reaches its midpoint) lay in the range of 250 to 1250 nM.

For `CCCSc1nc(N[C@@H]2C[C@H]2c2ccc(F)c(F)c2)c2nnn([C@@H]3C[C@H](CO)O[C@H]3CO)c2n1` [Compound 19, ((2R,3R,5R)-3-(7-(((1R,2S)-2-(3,4-difluorophenyl)cyclopropyl)amino)-5-(propylthio)-3H-[1,2,3]triazolo[4,5-d]pyrimidin-3-yl)tetrahydrofuran-2,5-diyl)dimethanol], under setting [1], the IC50 is less than 50 nM. For the compound `CCCSc1nc(N[C@@H]2C[C@H]2c2ccc(F)c(F)c2)c2nnn([C@H]3CO[C@@H](CO)[C@@H]3O)c2n1` [Compound 27, (2S,3R,4S)-4-(7-(((1R,2S)-2-(3,4-difluorophenyl)cyclopropyl)amino)-5-(propylthio)-3H-[1,2,3]triazolo[4,5-d]pyrimidin-3-yl)-2-(hydroxymethyl)tetrahydrofuran-3-ol], under setting [1], the IC50 was less than 50 nM. On the same count and under the same terms, under `CCCSc1nc(N[C@@H]2C[C@H]2c2ccc(F)c(F)c2)c2nnn([C@H]3CO[C@@H](CO)C3)c2n1` [Compound 32, ((2R,4R)-4-(7-(((1R,2S)-2-(3,4-difluorophenyl)cyclopropyl)amino)-5-(propylthio)-3H-[1,2,3]triazolo[4,5-d]pyrimidin-3-yl)tetrahydrofuran-2-yl)methanol] stands less than 50 nM; under `CCCSc1nc(N[C@@H]2C[C@H]2c2ccc(F)c(F)c2)c2nnn([C@@H]3[C@H](F)[C@H](CO)O[C@H]3CO)c2n1` [Compound 39a, ((2R,3S,4S,5S)-3-(7-(((1R,2S)-2-(3,4-difluorophenyl)cyclopropyl)amino)-5-(propylthio)-3H-[1,2,3]triazolo[4,5-d]pyrimidin-3-yl)-4-fluorotetrahydrofuran-2,5-diyl)dimethanol], 50 to 250 nM. Take `CCCSc1nc(N[C@@H]2C[C@H]2c2ccc(F)c(F)c2)c2nnn([C@@H]3[C@@H](F)[C@H](CO)O[C@H]3CO)c2n1` [Compound 39b, ((2R,3S,4R,5S)-3-(7-(((1R,2S)-2-(3,4-difluorophenyl)cyclopropyl)amino)-5-(propylthio)-3H-[1,2,3]triazolo[4,5-d]pyrimidin-3-yl)-4-fluorotetrahydrofuran-2,5-diyl)dimethanol]: under setting [1], the IC50 lay within 50 to 250 nM. The same measure, in the same setting: under `CCCSc1nc(N[C@@H]2C[C@H]2c2ccc(F)c(F)c2)c2nnn([C@@H]3C[C@H](C(=O)O)O[C@H]3CO)c2n1` [Compound 42, (2R,4R,5R)-4-(7-(((1R,2S)-2-(3,4-difluorophenyl)cyclopropyl)amino)-5-(propylthio)-3H-[1,2,3]triazolo[4,5-d]pyrimidin-3-yl)-5-(hydroxymethyl)tetrahydrofuran-2-carboxylic acid] stands less than 50 nM. In the case of `CCC[S+]([O-])c1nc(N[C@@H]2C[C@H]2c2ccc(F)c(F)c2)c2nnn([C@@H]3C[C@H](C(=O)O)O[C@H]3CO)c2n1` (stereo partly drawn) [Compound 43, (2R,4R,5R)-4-(7-(((1R,2S)-2-(3,4-difluorophenyl)cyclopropyl)amino)-5-(propylsulfinyl)-3H-[1,2,3]triazolo[4,5-d]pyrimidin-3-yl)-5-(hydroxymethyl) tetrahydrofuran-2-carboxylic Acid], the IC50 under setting [1] lay within 250 to 1250 nM. For the compound `CCCSc1nc(N[C@@H]2C[C@H]2c2ccc(F)c(F)c2)c2nnn([C@@H]3C[C@H](CO)O[C@H]3COC)c2n1` [Compound 49, ((2R,4R,5R)-4-(7-(((1R,2S)-2-(3,4-difluorophenyl)cyclopropyl)amino)-5-(propylthio)-3H-[1,2,3]triazolo[4,5-d]pyrimidin-3-yl)-5-(methoxymethyl)tetrahydrofuran-2-yl)methanol], the IC50 under setting [1] fell in the range of 250 to 1250 nM.

`CCCSc1nc(N[C@@H]2C[C@H]2c2ccc(F)c(F)c2)c2nnn([C@@H]3C[C@H](CCO)O[C@H]3CO)c2n1` [Compound 54, 2-((2R,4R,5R)-4-(7-(((1R,2S)-2-(3,4-difluorophenyl)cyclopropyl)amino)-5-(propylthio)-3H-[1,2,3]triazolo[4,5-d]pyrimidin-3-yl)-5-(hydroxymethyl)tetrahydrofuran-2-yl)ethan-1-ol]: under setting [1], the IC50 was greater than 1250 nM. Turning to `CCCSc1nc(N[C@@H]2C[C@H]2c2ccc(F)c(F)c2)c2nnn([C@@H]3C[C@H](OCCO)[C@@H](O)[C@H]3O)c2n1` [Ticagrelor, reference compound], the IC50 is less than 50 nM.
